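96-well plates; 48 h exposure; 5 concentrations. Endpoints by linear interpolation between flanking doses. Not reached: highest tested concentration assigned. The concentration for 50% growth inhibition is given as GI50. TGI is the concentration that stops growth completely.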
Tests used:
Test in all cases: NCI anticancer screen, dose series, 48 h
[1] = system: NCI-H226 lung
[2] = system: SK-MEL-5 melanoma
[3] = system: RPMI-8226 leukemia
[4] = system: U251 CNS
[5] = system: OVCAR-5 ovarian
[6] = system: CCRF-CEM leukemia
[7] = system: PC-3 prostate
[8] = system: HOP-92 NSCLC
[9] = system: A498 renal
[10] = system: BT-549 breast
[11] = system: UACC-62 melanoma
[12] = system: MDA-MB-231 breast
[13] = system: EKVX NSCLC
[14] = system: COLO 205 colon
[15] = system: 786-0 renal
[16] = system: TK-10 renal
[17] = system: NCI/ADR-RES ovarian
[18] = system: NCI-H23 lung
[19] = system: OVCAR-8 ovarian
[20] = system: HCT-15 colon
[21] = system: SK-OV-3 ovarian
[22] = system: DU-145 prostate
[23] = system: NCI-H460 lung
[24] = system: RXF 393 renal
[25] = system: M14 melanoma
[26] = system: KM12 colon
[27] = system: SK-MEL-28 melanoma
[28] = system: HOP-62 NSCLC
[29] = system: SNB-75 CNS

Oc1ccc(CSc2nnc(-c3ccc(Oc4ccccc4)cc3)n2-c2ccccc2)c2cccnc12
GI50 [1]: 369 nM
TGI [1]: > 100000 nM
GI50 [2]: 222 nM
TGI [2]: 2400 nM
GI50 [3]: 146 nM
TGI [3]: > 100000 nM
GI50 [4]: 69.6 nM
TGI [4]: > 35600 nM
GI50 [5]: 639 nM
TGI [5]: > 100000 nM
GI50 [6]: 72.9 nM
TGI [6]: > 100000 nM
GI50 [7]: 83.4 nM
TGI [7]: > 100000 nM
GI50 [8]: 213 nM
TGI [8]: 31800 nM
GI50 [9]: 641 nM
TGI [9]: 19800 nM
GI50 [10]: 105 nM
TGI [10]: > 100000 nM
GI50 [11]: 256 nM
TGI [11]: 1130 nM
GI50 [12]: 355 nM
TGI [12]: 33000 nM
GI50 [13]: 339 nM
TGI [13]: > 100000 nM
GI50 [14]: 1270 nM
TGI [14]: > 100000 nM
GI50 [15]: 527 nM
TGI [15]: 11300 nM
GI50 [16]: 153 nM
TGI [16]: > 42400 nM
GI50 [17]: 270 nM
TGI [17]: 6990 nM
GI50 [18]: 260 nM
TGI [18]: 25600 nM
GI50 [19]: 146 nM
TGI [19]: > 46500 nM
GI50 [20]: 179 nM
TGI [20]: > 100000 nM
GI50 [21]: 307 nM
GI50 [22]: 340 nM
TGI [22]: > 100000 nM
GI50 [23]: 38.5 nM
GI50 [24]: 981 nM
TGI [24]: > 58700 nM
GI50 [25]: 95.4 nM
TGI [25]: 1120 nM
GI50 [26]: 176 nM
TGI [26]: > 100000 nM
GI50 [27]: 247 nM
TGI [27]: > 100000 nM
GI50 [28]: 304 nM
TGI [28]: > 34600 nM
GI50 [29]: 188 nM
TGI [29]: 22700 nM

— PubChem BioAssay (NCI)
